Target: T1, hSTING (Homo sapiens, UniProt Q86WV6, G230A/H232R/R293Q/R71H)
T1 construct: host or cells: THP1-Dual KO-IFNAR2 cells
Experiment: STING reporter assay in THP1-Dual KO-IFNAR2 cells (2'3'cGAMP stimulation, luciferase reporter)
Assay type: cell-based
Settings: 15 μM 2'3'cGAMP, 24 h, class symbols
Method: STING pathway activation by the compounds described herein was measured using THP1-Dual™ cells (KO-IFNAR2).
THP1-Dual™ KO-IFNAR2 Cells (obtained from invivogen) were maintained in RPMI, 10% FCS, 5 ml P/S, 2 mM L-glut, 10 mM Hepes, and 1 mM sodium pyruvate. Compounds were spotted in empty 384 well tissue culture plates (Greiner 781182) by Echo for a final concentration of 0.0017-100 μM. Cells were plated into the TC plates at 40 μL per well, 2×10E6 cells/mL. For activation with STING ligand, 2′3′cGAMP (MW 718.38, obtained from Invivogen), was prepared in Optimem media.
The following solutions were prepared for each 1×384 plate: • Solution A: 2 mL Optimem with one of the following stimuli: • 60 μL of 10 mM 2′3′cGAMP→150 μM stock • Solution B: 2 mL Optimem with 60 μL Lipofectamine 2000→Incubate 5 min at RT
2 mL of solution A and 2 ml Solution B was mixed and incubated for 20 min at room temperature (RT). 20 μL of transfection solution (A+B) was added on top of the plated cells, with a final 2′3′cGAMP concentration of 15 μM. The plates were then centrifuged immediately at 340 g for 1 minute, after which they were incubated at 37° C., 5% CO2, >98% humidity for 24 h. Luciferase reporter activity was then measured. EC50 values were calculated by using standard methods known in the art.
Luciferase reporter assay: 10 μL of supernatant from the assay was transferred to white 384-plate with flat bottom and squared wells. One pouch of QUANTI-Luc™ Plus was dissolved in 25 mL of water. 100 μL of QLC Stabilizer per 25 mL of QUANTI-Luc™ Plus solution was added. 50 μL of QUANTI-Luc™ Plus/QLC solution per well was then added. Luminescence was measured on a Platereader (e.g., Spectramax I3X (Molecular Devices GF3637001)).
Luciferase reporter activity was then measured. EC50 values were calculated by using standard methods known in the art.

T1 sequence (Q86WV6 whole entry R71H/G230A/H232R/R293Q): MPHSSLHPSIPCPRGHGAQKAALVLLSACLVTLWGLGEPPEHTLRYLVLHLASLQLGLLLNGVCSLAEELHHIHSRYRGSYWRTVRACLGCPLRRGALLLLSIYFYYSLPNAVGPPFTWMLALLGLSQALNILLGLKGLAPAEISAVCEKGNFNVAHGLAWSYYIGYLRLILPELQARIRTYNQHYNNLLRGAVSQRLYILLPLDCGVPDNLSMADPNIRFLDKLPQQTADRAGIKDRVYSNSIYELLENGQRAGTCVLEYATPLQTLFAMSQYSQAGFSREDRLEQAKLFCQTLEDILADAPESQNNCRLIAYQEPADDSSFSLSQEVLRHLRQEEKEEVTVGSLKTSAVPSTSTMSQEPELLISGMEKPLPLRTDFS

| EC50 [nM] | SMILES |
| --- | --- |
| 200 to 1000 | N#Cc1cc(Cl)cc(Nc2cc(C#N)nc(Nc3ccc4cc[nH]c4c3)c2)c1 [Compound 135, 4-[(3-chloro-5-cyanophenyl)amino]-6-[(1H-indol-6-yl)amino]pyridine-2-carbonitrile] |
| 200 to 1000 | N#Cc1cc(Nc2cc(Cl)cc(Cl)c2)cc(Nc2ccc3cc[nH]c3c2)n1 [Compound 136, 4-[(3,5-dichlorophenyl)amino]-6-[(1H-indol-6-yl)amino]pyridine-2-carbonitrile] |
| 200 to 1000 | N#Cc1cc(Nc2cc(F)cc(F)c2)cc(Nc2ccc3cc[nH]c3c2)n1 [Compound 137, 4-[(3,5-difluorophenyl)amino]-6-[(1H-indol-6-yl)amino]pyridine-2-carbonitrile] |
| 200 to 1000 | N#Cc1cc(Nc2ccc(Cl)c(Cl)c2)cc(Nc2ccc3cc[nH]c3c2)n1 [Compound 138, 4-[(3,4-dichlorophenyl)amino]-6-[(1H-indol-6-yl)amino]pyridine-2-carbonitrile] |
| 200 to 1000 | N#Cc1cc(Nc2ccc(Cl)c(F)c2)cc(Nc2ccc3cc[nH]c3c2)n1 [Compound 139, 4-[(4-chloro-3-fluorophenyl)amino]-6-[(1H-indol-6-yl)amino]pyridine-2-carbonitrile] |
| 200 to 1000 | N#Cc1cc(Nc2ccc(F)c(Cl)c2)cc(Nc2ccc3cc[nH]c3c2)n1 [Compound 140, 6-((1H-indol-6-yl)amino)-4-((3-chloro-4-fluorophenyl)amino)picolinonitrile] |
| 200 to 1000 | N#Cc1cc(Nc2cncc(C(F)(F)F)c2)cc(Nc2ccc3cc[nH]c3c2)n1 [Compound 141, 6-[(1H-indol-6-yl)amino]-4-{[5-(trifluoromethyl)pyridin-3-yl]amino}pyridine-2-carbonitrile] |
| 200 to 1000 | N#Cc1cc(Nc2ccc3c(c2)CCC3)cc(Nc2ccc3cc[nH]c3c2)n1 [Compound 142, 4-[(2,3-dihydro-1H-inden-5-yl)amino]-6-[(1H-indol-6-yl)amino]pyridine-2-carbonitrile] |
| 200 to 1000 | N#Cc1cc(Nc2ccc3c(c2)OC(F)(F)C(F)(F)O3)cc(Nc2ccc3cc[nH]c3c2)n1 [Compound 143, 6-((1H-indol-6-yl)amino)-4-((2,2,3,3-tetrafluoro-2,3-dihydrobenzo[b][1,4]dioxin-6-yl)amino)picolinonitrile] |
| 1000 to 5000 | N#Cc1cc(Nc2ccc3c(c2)OCCO3)cc(Nc2ccc3cc[nH]c3c2)n1 [Compound 144, 4-[(2,3-dihydro-1,4-benzodioxin-6-yl)amino]-6-[(1H-indol-6-yl)amino]pyridine-2-carbonitrile] |
| 200 to 1000 | N#Cc1cc(Nc2ccc3cc[nH]c3c2)cc(Nc2ccc3cc[nH]c3c2)n1 [Compound 145] |
| 1000 to 5000 | Fc1cnc(Nc2ccc3cc[nH]c3c2)cc1Nc1ccc2cc[nH]c2c1 [Compound 146] |
| 200 to 1000 | N#Cc1cc(N2CCC(C(F)(F)F)CC2)cc(Nc2cc(Cl)c3cc[nH]c3c2)n1 [Compound 147, 6-[(4-chloro-1H-indol-6-yl)amino]-4-[4-(trifluoromethyl)piperidin-1-yl]pyridine-2-carbonitrile] |
| 1000 to 5000 | N#Cc1cc(N2CCN(CC(F)(F)F)CC2)cc(Nc2cc(Cl)c3cc[nH]c3c2)n1 [Compound 148, 6-[(4-chloro-1H-indol-6-yl)amino]-4-[4-(2,2,2-trifluoroethyl)piperazin-1-yl]pyridine-2-carbonitrile] |
| 200 to 1000 | N#Cc1cc(N2CCC(Cc3ccc(F)cc3)CC2)cc(Nc2cc(Cl)c3cc[nH]c3c2)n1 [Compound 149, 6-[(4-chloro-1H-indol-6-yl)amino]-4-{4-[(4-fluorophenyl)methyl]piperidin-1-yl}pyridine-2-carbonitrile] |
| 200 to 1000 | COc1cc(Nc2cc(C#N)nc(Nc3cc(Cl)c4cc[nH]c4c3)c2)cnc1Cl [Compound 150, 6-[(4-chloro-1H-indol-6-yl)amino]-4-[(6-chloro-5-methoxypyridin-3-yl)amino]pyridine-2-carbonitrile] |
| 200 to 1000 | N#Cc1cc(N2CCC(Cc3ccccc3)CC2)cc(Nc2cc(Cl)c3cc[nH]c3c2)n1 [Compound 151, 4-(4-benzylpiperidin-1-yl)-6-[(4-chloro-1H-indol-6-yl)amino]pyridine-2-carbonitrile] |
| 5000 to 100000 | CN1CCN(c2cc(C#N)nc(Nc3cc(Cl)c4cc[nH]c4c3)c2)CC1 [Compound 152, 6-[(4-chloro-1H-indol-6-yl)amino]-4-(4-methylpiperazin-1-yl)pyridine-2-carbonitrile] |
| 40 to 200 | N#Cc1cc(Nc2ccc(OCC(F)(F)F)nc2)cc(Nc2cc(Cl)c3cc[nH]c3c2)n1 [Compound 153, 6-[(4-chloro-1H-indol-6-yl)amino]-4-{[6-(2,2,2-trifluoroethoxy)pyridin-3-yl]amino}pyridine 2-carbonitrile] |
| 40 to 200 | N#Cc1cc(Nc2ccc(Cl)c(Cl)c2)cc(Nc2cc(Cl)c3cc[nH]c3c2)n1 [Compound 154, 6-[(4-chloro-1H-indol-6-yl)amino]-4-[(3,4-dichlorophenyl)amino]pyridine-2-carbonitrile] |
| 200 to 1000 | N#Cc1cc(N2CCC(Oc3ccccc3)CC2)cc(Nc2cc(Cl)c3cc[nH]c3c2)n1 [Compound 155, 6-[(4-chloro-1H-indol-6-yl)amino]-4-(4-phenoxypiperidin-1-yl)pyridine-2-carbonitrile] |
| 1000 to 5000 | COC1CCN(c2cc(C#N)nc(Nc3cc(Cl)c4cc[nH]c4c3)c2)CC1 [Compound 156, 6-[(4-chloro-1H-indol-6-yl)amino]-4-(4-methoxypiperidin-1-yl)pyridine-2-carbonitrile] |
| 1000 to 5000 | CC(C)CN1CCN(c2cc(C#N)nc(Nc3cc(Cl)c4cc[nH]c4c3)c2)CC1 [Compound 157, 6-[(4-chloro-1H-indol-6-yl)amino]-4-[4-(2-methylpropyl)piperazin-1-yl]pyridine-2-carbonitrile] |
| 200 to 1000 | N#Cc1cc(Nc2cncc(F)c2)cc(Nc2cc(Cl)c3cc[nH]c3c2)n1 [Compound 158, 6-[(4-chloro-1H-indol-6-yl)amino]-4-[(5-fluoropyridin-3-yl)amino]pyridine-2-carbonitrile] |
| 40 to 200 | N#Cc1cc(Nc2ccc(C(F)(F)F)c(F)c2)cc(Nc2cc(Cl)c3cc[nH]c3c2)n1 [Compound 159, 6-[(4-chloro-1H-indol-6-yl)amino]-4-{[3-fluoro-4-(trifluoromethyl)phenyl]amino}pyridine-2-carbonitrile] |
| 200 to 1000 | CC1(C)CCN(c2cc(C#N)nc(Nc3cc(Cl)c4cc[nH]c4c3)c2)CC1 [Compound 160, 6-[(4-chloro-1H-indol-6-yl)amino]-4-(4,4-dimethylpiperidin-1-yl)pyridine-2-carbonitrile] |
| 1000 to 5000 | N#Cc1cc(N2CCOCC2)cc(Nc2cc(Cl)c3cc[nH]c3c2)n1 [Compound 161, 6-[(4-chloro-1H-indol-6-yl)amino]-4-(morpholin-4-yl)pyridine-2-carbonitrile] |
| 200 to 1000 | CC(C)c1cncc(Nc2cc(C#N)nc(Nc3cc(Cl)c4cc[nH]c4c3)c2)c1 [Compound 162, 6-[(4-chloro-1H-indol-6-yl)amino]-4-{[5-(propan-2-yl)pyridin-3-yl]amino}pyridine-2-carbonitrile] |
| 200 to 1000 | CC(C)(C)c1cncc(Nc2cc(C#N)nc(Nc3cc(Cl)c4cc[nH]c4c3)c2)c1 [Compound 163, 4-[(5-tert-butylpyridin-3-yl)amino]-6-[(4-chloro-1H-indol-6-yl)amino]pyridine-2-carbonitrile] |
